Here are results for 16 molecules from US12570655B2, “Cysteine covalent modifiers of AKT1 and uses thereof” (Terremoto Biosciences, Inc., priority 2023, dated 2026).

Like-named read-outs stand apart in the source and are kept apart here. Where only a bound is given, the exact number is not on record here.

Format in all cases: cell-based
Test [1] has as its target T1, AKT1 WT (Homo sapiens, UniProt P31749).
T1 construct: expressed in transfected cells; host or cells: HEK293
Briefly: Live cell AKT1 WT target engagement by NanoBRET competitive probe displacement. Conditions: HEK293 cells transfected with kinase-NanoLuciferase fusion, 2 h at 37° C. Here is the method: (§1) Determining Live Cell AKT1 E17K, AKT1 WT, and AKT2 Target Engagement by NanoBRET Competitive Probe Displacement.
(§2) Live cell target engagement assays were performed as described (Vasta, J. D. et al. Cell Chem Biol 2018, 25(11), 206-214). Briefly, HEK293 cells were transfected with plasmids encoding kinase-NanoLuciferase fusion proteins overnight. Cells were then treated with serial dilutions of compound and an ˜EC50 concentration of fluorescently-tagged ATP-competitive tracer (Promega). After incubation for 2 h at 37° C., luciferase substrate and extracellular luciferase inhibitor were added to all wells, and luminescent intensity at 460 nm and 600 nm were measured on a multimode plate-reader. The ratio of E600/E460 was calculated to give the tracer engagement signal (BRET). IC50 values were calculated by fitting BRET values to a log(inhibitor) vs. response Hill equation.
For orientation: BRET reads energy transfer from a luciferase to a nearby fluorophore.

Test [2] deals with T2, AKT2 (Homo sapiens, UniProt P31751).
T2 construct: expressed in transfected cells; host or cells: HEK293
T2 sequence (P31751 whole entry): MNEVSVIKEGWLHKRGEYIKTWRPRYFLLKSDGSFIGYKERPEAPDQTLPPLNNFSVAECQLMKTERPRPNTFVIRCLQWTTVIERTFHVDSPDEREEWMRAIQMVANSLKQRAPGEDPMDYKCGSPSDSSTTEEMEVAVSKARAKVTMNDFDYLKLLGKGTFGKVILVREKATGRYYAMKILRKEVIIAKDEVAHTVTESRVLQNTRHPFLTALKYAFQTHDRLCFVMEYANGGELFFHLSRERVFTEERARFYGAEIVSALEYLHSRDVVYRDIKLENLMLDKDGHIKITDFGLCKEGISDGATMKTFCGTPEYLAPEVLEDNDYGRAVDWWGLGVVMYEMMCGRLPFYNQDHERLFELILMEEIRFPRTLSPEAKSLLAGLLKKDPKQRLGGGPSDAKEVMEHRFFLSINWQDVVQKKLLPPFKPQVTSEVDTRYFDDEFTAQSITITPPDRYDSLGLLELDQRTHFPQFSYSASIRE
Briefly: Live cell AKT2 target engagement by NanoBRET competitive probe displacement. The note with it: HEK293 cells transfected with kinase-NanoLuciferase fusion, 2 h at 37° C. How it is done:
as §1, §2

Test [3] has as its target T3, AKT1 E17K (Homo sapiens, UniProt P31749, E17K).
T3 construct: expressed in transfected cells; host or cells: HEK293
Briefly: Live cell AKT1 E17K target engagement by NanoBRET competitive probe displacement. The note with it: HEK293 cells transfected with kinase-NanoLuciferase fusion, 2 h at 37° C. Summed up: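 IC50 reflects displacement of a fluorescent ATP-competitive tracer, dosed near its EC50, from kinase–NanoLuciferase fusions in live HEK293 cells. Cells were incubated with compound and tracer for 2 h at 37 °C, then E600/E460 BRET was read.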

Test [4] deals with LAPC4 prostate cancer cells. Briefly: Antiproliferative effects in LAPC4 cells (CellTiter Glo). Conditions: LAPC4 cells (AKT1 E17K allele), read-out: LAPC4 proliferation IC50. Summed up:
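Seed 1,000 cells/well in IMDM/12% FBS/1% P/S; add compound dilutions (DMSO); incubate 72 h; read intracellular ATP with CellTiter Glo; fit luminescence to log(inhibitor)-response Hill curve for IC50.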

T1 sequence (P31749 whole entry): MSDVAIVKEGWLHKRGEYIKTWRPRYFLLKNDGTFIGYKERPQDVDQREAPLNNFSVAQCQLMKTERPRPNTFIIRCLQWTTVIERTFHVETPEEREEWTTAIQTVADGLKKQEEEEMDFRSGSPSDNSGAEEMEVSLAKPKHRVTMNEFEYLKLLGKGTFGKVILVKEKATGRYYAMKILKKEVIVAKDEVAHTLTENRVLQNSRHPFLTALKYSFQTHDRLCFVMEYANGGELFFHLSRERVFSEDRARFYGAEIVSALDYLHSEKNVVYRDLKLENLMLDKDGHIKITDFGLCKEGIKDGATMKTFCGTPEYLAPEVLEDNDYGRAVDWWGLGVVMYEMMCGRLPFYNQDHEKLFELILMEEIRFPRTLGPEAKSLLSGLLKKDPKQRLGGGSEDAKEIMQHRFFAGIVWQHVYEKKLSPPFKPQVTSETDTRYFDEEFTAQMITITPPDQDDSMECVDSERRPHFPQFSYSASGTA
T3 sequence (P31749 whole entry E17K): as the sequence (P31749 whole entry) above, with E17K counted along it

Take `C=C(F)C(=O)N1CCC(N[C@H]2CCc3cc(-n4c(-c5cccnc5N)nc5ccc(-n6cccn6)nc54)ccc32)CC1` [Example 46, 1-(4-{[(1S)-5-[2-(2-aminopyridin-3-yl)-5-(pyrazol-1-yl)imidazo[4,5-b]pyridin-3-yl]-2,3-dihydro-1H-inden-1-yl]amino}piperidin-1-yl)-2-fluoroprop-2-en-1-one]: the IC50 was 726 nM in test [1] and more than 10000 nM in test [2].

As for `C=CC(=O)N1CCC(N[C@@H]2c3ccc(-n4c(-c5ccccc5)nc5ccc(-n6cccn6)nc54)cc3CC2F)CC1C(F)F` (single isomer, unassigned) [Example 329, 1-((2*,4*)-2-(difluoromethyl)-4-(((1R,2*)-2-fluoro-5-(2-phenyl-5-(1H-pyrazol-1-yl)-3H-imidazo[4,5-b]pyridin-3-yl)-2,3-dihydro-1H-inden-1-yl)amino)piperidin-1-yl)prop-2-en-1-one], the IC50 in test [3] was determined as 5.37 nM; in test [1], 156 nM; in test [2], 17.9 nM.

Consider `C=CC(=O)N1CCC(N[C@@H]2c3ccc(-n4c(-c5cccnc5N)nc5ccc(-n6ccc(C7CC7)n6)nc54)cc3CC2F)CC1C(F)F` (single isomer, unassigned) [Example 334, 1-((2*,4*)-4-(((1*,2*)-5-(2-(2-aminopyridin-3-yl)-5-(3-cyclopropyl-1H-pyrazol-1-yl)-3H-imidazo[4,5-b]pyridin-3-yl)-2-fluoro-2,3-dihydro-1H-inden-1-yl)amino)-2-(difluoromethyl)piperidin-1-yl)prop-2-en-1-one], for which the IC50 in test [3] is 6.75 nM; in test [1] it was 137 nM; in test [2], 23.5 nM.

Consider `C=CC(=O)N1CCC(N[C@@H]2c3ccc(-n4c(-c5ccccc5)nc5ccc(-c6ccccc6)nc54)cc3CC2F)CC1` (single isomer, unassigned) [Example 325, 1-(4-{[(1R,2*)-5-{2,5-diphenylimidazo[4,5-b]pyridin-3-yl}-2-fluoro-2,3-dihydro-1H-inden-1-yl]amino}piperidin-1-yl)prop-2-en-1-one], for which the IC50 in test [3] turned out to be 7.92 nM; in test [1] it was 298 nM; in test [2], 101 nM.

`C=CC(=O)N1C[C@@H]2[C@H](C1)[C@@H]2NC1CCc2cc(-n3c(-c4cccnc4N)nc4ccc(-n5cccn5)nc43)ccc21` (stereo partly drawn) [Example 345, 1-[(1R,5S,6R)-6-({5-[2-(2-aminopyridin-3-yl)-5-(pyrazol-1-yl)imidazo[4,5-b]pyridin-3-yl]-2,3-dihydro-1H-inden-1-yl}amino)-3-azabicyclo[3.1.0]hexan-3-yl]prop-2-en-1-one]: the results for the IC50 in test [3], in test [1] and in test [2] were 34 nM, 268 nM and 63.5 nM, respectively.

`C=CC(=O)N1CCC(N[C@@H]2c3ccc(-n4c(-c5ccccc5)nc5ccc(-n6cccn6)nc54)cc3CC2F)CC1` (single isomer, unassigned) [Example 249, 1-(4-(((1R,2*)-2-fluoro-5-(2-phenyl-5-(1H-pyrazol-1-yl)-3H-imidazo[4,5-b]pyridin-3-yl)-2,3-dihydro-1H-inden-1-yl)amino)piperidin-1-yl)prop-2-en-1-one]: the IC50 was determined as 12.6 nM in test [3]; 614 nM in test [4] (Homo sapiens, LAPC4, 72 h); 143 nM in test [2].

For `C=CC(=O)N1CCC(N[C@H]2CCc3cc(-n4c(-c5cccnc5N)nc5ccc(-n6cccn6)nc54)ccc32)CC1CC#N` (single isomer, unassigned) [Example 326, 2-((2*,4*)-1-acryloyl-4-(((S)-5-(2-(2-aminopyridin-3-yl)-5-(1H-pyrazol-1-yl)-3H-imidazo[4,5-b]pyridin-3-yl)-2,3-dihydro-1H-inden-1-yl)amino)piperidin-2-yl)acetonitrile], the values for the IC50 in test [3], in test [1] and in test [2] were 7.25 nM, 98.8 nM and 29.3 nM, respectively.

Take `C=CC(=O)N1CCC(N[C@@H]2c3ccc(-n4c(-c5ccccc5F)nc5ccc(-n6cccn6)nc54)cc3CC2F)C[C@H]1C` (single isomer, unassigned) [Example 319, 1-((2R,4*)-4-(((1R,2*)-2-fluoro-5-(2-(2-fluorophenyl)-5-(1H-pyrazol-1-yl)-3H-imidazo[4,5-b]pyridin-3-yl)-2,3-dihydro-1H-inden-1-yl)amino)-2-methylpiperidin-1-yl)prop-2-en-1-one]: the IC50 in test [3] was found to be 49.6 nM; in test [4] (72 h), 1600 nM; in test [2], 301 nM.

As for `C=CC(=O)N1CCC(NC2c3ccc(-n4c(-c5cccnc5N)nc5ccc(-n6ccc(C7CC7)n6)nc54)cc3CC2F)CC1C(F)F` (single isomer, unassigned) [Example 335, 1-((2*,4*)-4-(((1*,2*)-5-(2-(2-aminopyridin-3-yl)-5-(3-cyclopropyl-1H-pyrazol-1-yl)-3H-imidazo[4,5-b]pyridin-3-yl)-2-fluoro-2,3-dihydro-1H-inden-1-yl)amino)-2-(difluoromethyl)piperidin-1-yl)prop-2-en-1-one], the values for the IC50 in test [3], in test [1] and in test [2] were 9.48 nM, 288 nM and 28.3 nM, respectively.

Consider `C=CC(=O)N1CCC(N[C@@H]2c3ccc(-n4c(-c5ccccc5)nc5ccc(-n6cccn6)nc54)cc3CC2F)CC1C(F)F` (single isomer, unassigned) [Example 330, 1-((2*,4*)-2-(difluoromethyl)-4-(((1R,2*)-2-fluoro-5-(2-phenyl-5-(1H-pyrazol-1-yl)-3H-imidazo[4,5-b]pyridin-3-yl)-2,3-dihydro-1H-inden-1-yl)amino)piperidin-1-yl)prop-2-en-1-one], for which the IC50 in test [3] is 31 nM; in test [1], 1480 nM; in test [2], 69.3 nM.

Turning to `C=CC(=O)N1CCC(NC2c3ccc(-n4c(-c5cccnc5N)nc5ccc(-n6ccc(C7CC7)n6)nc54)cc3CC2F)CC1C(F)F` (single isomer, unassigned) [Example 336, 1-((2*,4*)-4-(((1*,2*)-5-(2-(2-aminopyridin-3-yl)-5-(3-cyclopropyl-1H-pyrazol-1-yl)-3H-imidazo[4,5-b]pyridin-3-yl)-2-fluoro-2,3-dihydro-1H-inden-1-yl)amino)-2-(difluoromethyl)piperidin-1-yl)prop-2-en-1-one], the results for the IC50 in test [3], in test [1] and in test [2] were 16.4 nM, 523 nM and 25.4 nM, respectively.

For `C=CC(=O)N1CCC(N[C@H]2CCc3cc(-n4c(-c5cccnc5N)nc5ccc(-n6ccc(C7(F)CC7)n6)nc54)ccc32)CC1` [Example 323, 1-(4-{[(1S)-5-[2-(2-aminopyridin-3-yl)-5-[3-(1-fluorocyclopropyl)pyrazol-1-yl]imidazo[4,5-b]pyridin-3-yl]-2,3-dihydro-1H-inden-1-yl]amino}piperidin-1-yl)prop-2-en-1-one], the figures for the IC50 in test [3], in test [1] and in test [2] were 6.22 nM, 263 nM and 45.3 nM, respectively.

Consider `C=CC(=O)N1CCC(N[C@H]2CCc3cc(-n4c(-c5cccnc5N)nc5ccc(-n6cccn6)nc54)ccc32)CC1CC#N` (single isomer, unassigned) [Example 327, 2-((2*,4*)-1-acryloyl-4-(((S)-5-(2-(2-aminopyridin-3-yl)-5-(1H-pyrazol-1-yl)-3H-imidazo[4,5-b]pyridin-3-yl)-2,3-dihydro-1H-inden-1-yl)amino)piperidin-2-yl)acetonitrile], for which the IC50 is 25.2 nM in test [3], 204 nM in test [1] and 99.4 nM in test [2].

Consider `C=CC(=O)N1CCC(CC2CCc3cc(-n4c(-c5cccnc5N)nc5ccc(-n6cccn6)nc54)ccc32)CC1` (single isomer, unassigned) [Example 343, 1-(4-(((*)-5-(2-(2-aminopyridin-3-yl)-5-(1H-pyrazol-1-yl)-3H-imidazo[4,5-b]pyridin-3-yl)-2,3-dihydro-1H-inden-1-yl)methyl)piperidin-1-yl)prop-2-en-1-one], for which the IC50 in test [3] was found to be 6.65 nM; in test [1], 86.1 nM; in test [2] it was 15.9 nM.

As to `C=CC(=O)N1CCC(N[C@@H]2c3ccc(-n4c(-c5ccccc5)nc5ccc(-n6cccn6)nc54)cc3CC2F)CC1` (single isomer, unassigned) [Example 250, 1-(4-(((1R,2*)-2-fluoro-5-(2-phenyl-5-(1H-pyrazol-1-yl)-3H-imidazo[4,5-b]pyridin-3-yl)-2,3-dihydro-1H-inden-1-yl)amino)piperidin-1-yl)prop-2-en-1-one], the IC50 is 14.7 nM in test [3], 559 nM in test [4] (72 h) and 134 nM in test [2].

`C=CC(=O)N1CCC(N[C@@H]2c3ccc(-n4c(-c5cccnc5N)nc5ccc(C6CC6)nc54)cc3CC2F)CC1` (single isomer, unassigned) [Example 203, 1-(4-(((1R,2*)-5-(2-(2-aminopyridin-3-yl)-5-cyclopropyl-3H-imidazo[4,5-b]pyridin-3-yl)-2-fluoro-2,3-dihydro-1H-inden-1-yl)amino)piperidin-1-yl)prop-2-en-1-one]: the IC50 in test [3] was 32.2 nM; in test [4] (72 h), 1760 nM; in test [2], 874 nM.
